Measurements taken from ChEMBL document CHEMBL1136220, “Synthesis and cytotoxic activity of A-ring modified betulinic acid derivatives” (2003).
Converted amounts (≈) assume the structure as drawn.

Key:
Format in all cases: functional
[1] = tested on: B16-F10; experiment: Cytotoxic activity towards B16-F10 cells; conditions: Mus musculus, read-out: ED50 (the source's name)
[2] = tested on: A549; experiment: Cytotoxic activity towards A-549 cells; conditions: Homo sapiens, read-out: ED50 (the source's name)
[3] = tested on: SK-MEL-2; experiment: Cytotoxic activity towards M2 cells (SK-MEL-2); conditions: Homo sapiens, read-out: ED50 (the source's name)

Row | Compound | EC50 [1] | EC50 [2] | EC50 [3]
1 | COC(=O)[C@]12CC[C@@H](C(C)C)C1C1CCC3[C@]4(C)C(CC[C@@]3(C)[C@]1(C)CC2)C(C)(C)C(=O)[C@@H]1O[C@@H]14 (stereo not given in full) | > 30 µg/mL | > 30 µg/mL | > 30 µg/mL
2 | CC(C)[C@@H]1CC[C@]2(C(=O)O)CC[C@]3(C)C(CC[C@@H]4[C@@]5(C)C=CC(=O)C(C)(C)C5CC[C@]43C)C12 (stereo not given in full) | 1.75 µg/mL (≈ 3.85 µM) | 2.89 µg/mL (≈ 6.36 µM) | 2.29 µg/mL (≈ 5.04 µM)
3 | CC(C)[C@@H]1CC[C@]2(C(=O)O)CC[C@]3(C)C(CC[C@@H]4[C@@]5(C)CC(C=O)=C(O)C(C)(C)C5CC[C@]43C)C12 (stereo not given in full) | 1.66 µg/mL (≈ 3.42 µM) | 2.2 µg/mL (≈ 4.54 µM) | 3.76 µg/mL (≈ 7.76 µM)
4 | COC(=O)[C@]12CC[C@@H](C(C)C)C1C1CC[C@@H]3[C@@]4(C)C=CC(=O)C(C)(C)C4CC[C@@]3(C)[C@]1(C)CC2 (stereo not given in full) | > 30 µg/mL | > 30 µg/mL | > 30 µg/mL
5 | C=C(C)[C@@H]1CC[C@]2(C(=O)OC)CC[C@]3(C)C(CC[C@@H]4[C@@]5(C)CC(C=O)=C(O)C(C)(C)C5CC[C@]43C)C12 (stereo not given in full) | > 30 µg/mL | > 30 µg/mL | > 30 µg/mL
6 | C=C(C)[C@@H]1CC[C@]2(C(=O)OC)CC[C@]3(C)C(CC[C@@H]4[C@@]5(C)C=C(C#N)C(=O)C(C)(C)C5CC[C@]43C)C12 (stereo not given in full) | 3.57 µg/mL (≈ 7.26 µM) | 4.55 µg/mL (≈ 9.25 µM) | 2.12 µg/mL (≈ 4.31 µM)
7 | COC(=O)[C@]12CC[C@@H](C(C)C)C1C1CC[C@@H]3[C@@]4(C)Cc5cnoc5C(C)(C)C4CC[C@@]3(C)[C@]1(C)CC2 (stereo not given in full) | > 30 µg/mL | > 30 µg/mL | > 30 µg/mL
8 | C=C(C)[C@@H]1CC[C@]2(C(=O)O)CC[C@]3(C)C(CC[C@@H]4[C@@]5(C)CC(C=O)=C(O)C(C)(C)C5CC[C@]43C)C12 (stereo not given in full) | > 30 µg/mL | 2.76 µg/mL (≈ 5.72 µM) | > 30 µg/mL
9 | CC(C)[C@@H]1CC[C@]2(C(=O)O)CC[C@]3(C)C(CC[C@@H]4[C@@]5(C)Cc6cnoc6C(C)(C)C5CC[C@]43C)C12 (stereo not given in full) | 1.57 µg/mL (≈ 3.26 µM) | 2.7 µg/mL (≈ 5.6 µM) | 1.15 µg/mL (≈ 2.39 µM)
10 | COC(=O)[C@]12CC[C@@H](C(C)C)C1C1CC[C@@H]3[C@@]4(C)C=C(C=O)C(=O)C(C)(C)C4CC[C@@]3(C)[C@]1(C)CC2 (stereo not given in full) | 0.29 µg/mL (≈ 0.584 µM) | 0.31 µg/mL (≈ 0.624 µM) | 0.73 µg/mL (≈ 1.47 µM)
11 | CC(C)[C@@H]1CC[C@]2(C(=O)O)CC[C@]3(C)C(CC[C@@H]4[C@@]5(C)C=C(Cl)C(=O)C(C)(C)C5CC[C@]43C)C12 (stereo not given in full) | 1.55 µg/mL (≈ 3.17 µM) | 1.01 µg/mL (≈ 2.06 µM) | 0.13 µg/mL (≈ 0.266 µM)
12 | CC(C)[C@@H]1CC[C@]2(C(=O)O)CC[C@]3(C)C(CC[C@@H]4[C@@]5(C)C=C(C#N)C(=O)C(C)(C)C5CC[C@]43C)C12 (stereo not given in full) | 1.43 µg/mL (≈ 2.98 µM) | 1.32 µg/mL (≈ 2.75 µM) | 0.81 µg/mL (≈ 1.69 µM)
13 | COC(=O)[C@]12CC[C@@H](C(C)C)C1C1CC[C@@H]3[C@@]4(C)C=C(OC)C(=O)C(C)(C)C4CC[C@@]3(C)[C@]1(C)CC2 (stereo not given in full) | > 30 µg/mL | > 30 µg/mL | > 30 µg/mL
14 | COC(=O)[C@]12CC[C@@H](C(C)C)C1C1CC[C@@H]3[C@@]4(C)C=C(C#N)C(=O)C(C)(C)C4CC[C@@]3(C)[C@]1(C)CC2 (stereo not given in full) | 0.8 µg/mL (≈ 1.62 µM) | 13 µg/mL (≈ 26.3 µM) | 1.25 µg/mL (≈ 2.53 µM)
15 | C=C(C)[C@@H]1CC[C@]2(C(=O)O)CC[C@]3(C)C(CC[C@@H]4[C@@]5(C)Cc6cnoc6C(C)(C)C5CC[C@]43C)C12 (stereo not given in full) | 3.11 µg/mL (≈ 6.48 µM) | 1.54 µg/mL (≈ 3.21 µM) | 16.6 µg/mL (≈ 34.6 µM)
16 | C=C(C)[C@@H]1CC[C@]2(C(=O)OC)CC[C@]3(C)C(CC[C@@H]4[C@@]5(C)Cc6cnoc6C(C)(C)C5CC[C@]43C)C12 (stereo not given in full) | > 30 µg/mL | > 30 µg/mL | > 30 µg/mL
17 | CC(C)[C@@H]1CC[C@]2(C(=O)O)CC[C@]3(C)C(CC[C@@H]4[C@@]5(C)C=C(C=O)C(=O)C(C)(C)C5CC[C@]43C)C12 (stereo not given in full) | 0.3 µg/mL (≈ 0.621 µM) | 0.17 µg/mL (≈ 0.352 µM) | 0.26 µg/mL (≈ 0.539 µM)
18 | COC(=O)[C@]12CC[C@@H](C(C)C)C1C1CC[C@@H]3[C@@]4(C)CC(C=O)=C(O)C(C)(C)C4CC[C@@]3(C)[C@]1(C)CC2 (stereo not given in full) | > 30 µg/mL | > 30 µg/mL | > 30 µg/mL
19 | COC(=O)[C@]12CC[C@@H](C(C)C)C1C1CC[C@@H]3[C@@]4(C)C=C(Cl)C(=O)C(C)(C)C4CC[C@@]3(C)[C@]1(C)CC2 (stereo not given in full) | > 30 µg/mL | > 30 µg/mL | > 30 µg/mL
20 | C=C(C)[C@@H]1CC[C@]2(C(=O)O)CC[C@]3(C)[C@H](CC[C@@H]4[C@@]5(C)CC[C@H](O)C(C)(C)[C@@H]5CC[C@]43C)[C@@H]12 [BETULINIC ACID] | 4.98 µg/mL (≈ 10.9 µM) | 7.7 µg/mL (≈ 16.9 µM) | 7.62 µg/mL (≈ 16.7 µM)
